19 compounds from patent US9975854B2, “Benzomorphan analogs and use thereof” (Purdue Pharma L.P., priority 2014, dated 2018) can be followed below.

As usually defined, the EC50 is the midpoint of the concentration-response curve. By Emax is commonly meant the size of the effect at its maximum, as opposed to the concentration needed.

Common to all, as to format: biochemical
In test [1] the target is T1, μ-opioid receptor (Homo sapiens (Human), UniProt P35372). The test is described as follows: μ-opioid receptor [35S]GTPγS functional assay, HEK-293 or CHO cells. The following applies: for Emax: relative to DAMGO. The procedure:
(§1) [^35S]GTPγS functional assays were conducted using freshly thawed μ-receptor membranes prepared in-house from a cell line expressing recombinant opioid receptor in a HEK-293, CHO or U-2 OS cell background, or purchased from a commercial source (Perkin Elmer, Shelton, Conn.; or DiscovRx, Fremont, Calif.). Assay reactions were prepared by sequentially adding the following reagents to binding buffer (100 mM NaCl, 10 mM MgCl2, 20 mM HEPES, pH 7.4) on ice (final concentrations indicated): membrane protein (0.026 mg/mL), saponin ([…]), GDP ([…]) and [^35S]GTPγS (0.20 nM; Perkin Elmer, Shelton, Conn.). The prepared membrane solution (190 μl/well) was transferred to 96-shallow well polypropylene plates containing 10 μl of 20× concentrated stock solutions of the agonist [D-Ala^2, N-methyl-Phe^4 Gly-ol^5]-enkephalin (DAMGO) prepared in dimethyl sulfoxide (DMSO). Plates were incubated for 30 min at about 25° C. with shaking. Reactions were terminated by rapid filtration onto 96-well Unifilter GF/B filter plates (Perkin Elmer, Shelton, Conn.) using a 96-well tissue harvester (Perkin Elmer, Shelton, Conn.) followed by three filtration washes with 200 μl of ice-cold wash buffer (10 mM NaH2PO4, 10 mM Na2HPO4, pH 7.4). Filter plates were subsequently dried at 50° C. for 2-3 hr. BetaScint scintillation cocktail (Perkin Elmer, Shelton, Conn.) was added (50 μl/well) and plates were counted using a Packard Top-Count for 1 min/well. Data were analyzed using the sigmoidal dose-response curve fitting functions in GraphPad PRISM v. 3.0, or an in-house function for non-linear, sigmoidal dose-response curve-fitting.
(§2) μ GTP EC50 is the concentration of a compound providing 50% of the maximal response for the compound at a μ-opioid receptor.
(§3) μ GTP Emax (%) is the maximal effect elicited by a compound relative to the effect elicited by DAMGO, a standard p agonist. Generally, the μ GTP Emax (%) value measures the efficacy of a compound to treat or prevent pain or other Conditions.
In TABLE 4, activity response of certain Compounds of the Invention to the μ- and κ-opioid receptors was determined as described above for functional assays using HEK-293 or CHO cells.

Test [2] concerns the target T1, μ-opioid receptor. The test is described as follows: μ-opioid receptor [35S]GTPγS functional assay, U-2 OS cells. The note with it: for Emax: relative to DAMGO. The procedure:
as §1, §2, §3
(§4) In TABLE 5, activity response of certain Compounds of the Invention to the μ- and κ-opioid receptors was determined as described above for functional assays using U-2 OS cells.
Background: Binding of GTPγS marks nucleotide exchange on a G protein.

The target of another test is κ-opioid receptor (Homo sapiens (Human), UniProt P41145). Kind of test: κ-opioid receptor [35S]GTPγS functional assay, U-2 OS cells. The note with it: for Emax: relative to U69,593. How it is done: Functional [^35S]GTPγS binding assays were conducted as follows. K opioid receptor membrane solution was prepared by sequentially adding final concentrations of 0.026 μg/μl κ membrane protein (in-house), 10 μg/mL saponin, 3 μM GDP and 0.20 nM [^35S]GTPγS to binding buffer (100 mM NaCl, 10 mM MgCl2, 20 mM HEPES, pH 7.4) on ice. The prepared membrane solution (190 μl/well) was transferred to 96-shallow well polypropylene plates containing 10 μl of 20× concentrated stock solutions of agonist prepared in DMSO. Plates were incubated for 30 min at a temperature of about 25° C. with shaking. Reactions were terminated by rapid filtration onto 96-well Unifilter GF/B filter plates (Perkin Elmer, Shelton, Conn.) using a 96-well tissue harvester (Packard) and followed by three filtration washes with 200 μl ice-cold binding buffer (10 mM NaH2PO4, 10 mM Na2HPO4, pH 7.4). Filter plates were subsequently dried at 50° C. for 2-3 hours. Fifty μl/well scintillation cocktail (Perkin Elmer, Shelton, Conn.) was added and plates were counted in a Packard Top-Count for 1 min/well.
κ GTP EC50 is the concentration of a compound providing 50% of the maximal response for the compound at a κ receptor.
κ GTP Emax (%) is the maximal effect elicited by a compound relative to the effect elicited by U69,593.
as §4

The mark [3] stands for this setting: HEK-293 or CHO cells, read-out: GTPγS μ EC50.
Where [4] appears, read: HEK-293 or CHO cells, bound given in uM, read-out: GTPγS μ EC50.

In the case of `CN1CC[C@@]2(C)c3cc(O)ccc3C[C@@H]1[C@H]2NCCC1(O)CCCCC1` [Compound 12, (2R,6S,11S)-11-((2-(1-hydroxycyclohexyl)ethyl)amino)-3,6-dimethyl-1,2,3,4,5,6-hexahydro-2,6-methano-benzo[d]azocin-8-ol], the half-maximal effective concentration (EC50) at μ-opioid receptor [1] (setting [3]) came out at 0.223 ± 0.0298 µM; on μ-opioid receptor [2] it was 33.6 ± 1.43 nM; on κ-opioid receptor it was 137 ± 20.1 nM. In addition, the Emax at μ-opioid receptor [1] (HEK-293 or CHO cells) was determined as 47.7 ± 4.84%; on μ-opioid receptor [2], 100 ± 1.67%; on κ-opioid receptor, 54 ± 5.92%.
`CN1CC[C@@]2(C)c3cc(O)ccc3C[C@@H]1[C@@H]2N(C)CC(=O)Nc1nc2ccc(F)cc2s1` [Compound 40, N-(6-fluorobenzo[d]thiazol-2-yl)-2-(((2R,6S,11R)-8-hydroxy-3,6-dimethyl-1,2,3,4,5,6-hexahydro-2,6-methanobenzo[d]azocin-11-yl)(methyl)amino)acetamide]: on μ-opioid receptor [2], the 50% effective concentration (EC50) was 539 ± 62.8 nM and the Emax is 18.7 ± 0.67%. Also, on κ-opioid receptor, the concentration for a half-maximal effect (EC50) turned out to be 10900 ± 1410 nM and the Emax amounted to 45.2 ± 4.82%.
Turning to `CCn1c(NC(=O)N(C)[C@H]2[C@H]3Cc4ccc(OC)cc4[C@]2(C)CCN3C)nc2ccccc21` [Compound 110, 3-(1-Ethyl-1H-benzo[d]imidazol-2-yl)-1-((2R,6S,11R)-8-methoxy-3,6-dimethyl-1,2,3,4,5,6-hexahydro-2,6-methanobenzo[d]azocin-11-yl)-1-methylurea], on μ-opioid receptor [1] (setting [3]), the EC50 came out at 0.851 ± 0.161 µM. Besides, on μ-opioid receptor [1] (HEK-293 or CHO cells), the Emax was determined as 89.2 ± 6.05%.
Consider `COc1ccc2c(c1)[C@]1(C)CCN(C)[C@H](C2)[C@@H]1N(C)C(=O)Nc1nc2ccccc2[nH]1` [Compound 111, 3-(1H-benzo[d]imidazol-2-yl)-1-((2R,6S,11R)-8-methoxy-3,6-dimethyl-1,2,3,4,5,6-hexahydro-2,6-methanobenzo[d]azocin-11-yl)-1-methylurea], for which the concentration giving a half-maximal response (EC50) on μ-opioid receptor [1] (setting [3]) was determined as 0.79 ± 0.0985 µM. Also, on μ-opioid receptor [1] (HEK-293 or CHO cells), the Emax came to 67.4 ± 3.48%.
For `CCn1c(NC(=O)N(C)[C@H]2[C@H]3Cc4ccc(O)cc4[C@]2(C)CCN3C)nc2ccccc21` [Compound 112, 3-(1-ethyl-1H-benzo[d]imidazol-2-yl)-1-((2R,6S,11R)-8-hydroxy-3,6-dimethyl-1,2,3,4,5,6-hexahydro-2,6-methanobenzo[d]azocin-11-yl)-1-methylurea], the 50% effective concentration (EC50) on μ-opioid receptor [1] (setting [3]) was 0.0141 ± 0.00052 µM. Besides, on μ-opioid receptor [1] (HEK-293 or CHO cells), the Emax was 84.2 ± 0.94%.
As for `CN1CC[C@@]2(C)c3cc(C#N)ccc3C[C@@H]1[C@@H]2NCCc1ccccc1` [Compound 113, (2R,6S,11R)-3,6-dimethyl-11-(phenethylamino)-1,2,3,4,5,6-hexahydro-2,6-methanobenzo[d]azocine-8-carbonitrile], on μ-opioid receptor [1] (setting [3]), the concentration for a half-maximal effect (EC50) was determined as 11.7 ± 2.81 µM. In addition, the Emax at μ-opioid receptor [1] (HEK-293 or CHO cells) worked out at 10.3 ± 1.1%.
On to `CN1CC[C@@]2(C)c3cc(C(N)=O)ccc3C[C@@H]1[C@@H]2NCCc1ccccc1` [Compound 114, (2R,6S,11R)-3,6-dimethyl-11-(phenethylamino)-1,2,3,4,5,6-hexahydro-2,6-methanobenzo[d]azocine-8-carboxamide], for which the EC50 on μ-opioid receptor [1] (setting [3]) turned out to be 8.62 ± 0.751 µM. Further, at μ-opioid receptor [1] (HEK-293 or CHO cells), the Emax was found to be 71 ± 2.18%.
Take `CN1CC[C@@]2(C)c3cc(C(N)=O)ccc3C[C@@H]1[C@H]2NCCc1ccccc1` [Compound 115, (2R,6S,11S)-3,6-dimethyl-11-(phenethylamino)-1,2,3,4,5,6-hexahydro-2,6-methanobenzo[d]azocine-8-carboxamide]: the EC50 at μ-opioid receptor [1] (setting [3]) came to 0.525 ± 0.0263 µM. The Emax at μ-opioid receptor [1] (HEK-293 or CHO cells) turned out to be 83.4 ± 1.58%.
`CN1CC[C@@]2(C)c3cc(C#N)ccc3C[C@@H]1C2(O)O` [Compound 116, (2R,6S)-11,11-dihydroxy-3,6-dimethyl-1,2,3,4,5,6-hexahydro-2,6-methanobenzo[d]azocine-8-carbonitrile]: on μ-opioid receptor [1], the EC50 is greater than 20 µM. Also, the Emax at μ-opioid receptor [1] (HEK-293 or CHO cells) stood at 0%.
Take `CN1CC[C@@]2(C)c3cc(C(=O)O)ccc3C[C@@H]1C2(O)O` [Compound 117, (2R,6S)-11,11-dihydroxy-3,6-dimethyl-1,2,3,4,5,6-hexahydro-2,6-methanobenzo[d]azocine-8-carboxylic acid]: on μ-opioid receptor [1] (setting [4]), the EC50 is greater than 20 µM. For the same compound, the Emax at μ-opioid receptor [1] (HEK-293 or CHO cells) worked out at 0%.
`CN1CC[C@@]2(C)c3cc(C(N)=O)ccc3C[C@@H]1C2(O)O` [Compound 118, (2R,6S)-11,11-dihydroxy-3,6-dimethyl-1,2,3,4,5,6-hexahydro-2,6-methanobenzo[d]azocine-8-carboxamide] registered an EC50 at μ-opioid receptor [1] of 17 ± 0.566 µM. For the same compound, the Emax on μ-opioid receptor [1] (HEK-293 or CHO cells) was 6.56 ± 0.6%.
Take `CN1CC[C@@]2(C)c3cc(C(N)=O)ccc3C[C@@H]1[C@@H]2N(C)C(=O)Nc1ccc(C#N)cc1` [Compound 119, (2R,6S,11R)-11-(3-(4-cyanophenyl)-1-methylureido)-3,6-dimethyl-1,2,3,4,5,6-hexahydro-2,6-methanobenzo[d]azocine-8-carboxamide]: the concentration for a half-maximal effect (EC50) on μ-opioid receptor [1] (setting [3]) was found to be 4.95 ± 0.508 µM. Besides, the Emax at μ-opioid receptor [1] (HEK-293 or CHO cells) amounted to 43.9 ± 1.88%.
With `CN1CC[C@@]2(C)c3cc(C(N)=O)ccc3C[C@@H]1[C@H]2N(C)C(=O)Nc1ccc(C#N)cc1` [Compound 120, (2R,6S,11S)-11-(3-(4-cyanophenyl)-1-methylureido)-3,6-dimethyl-1,2,3,4,5,6-hexahydro-2,6-methanobenzo[d]azocine-8-carboxamide], the EC50 on μ-opioid receptor [1] (setting [4]) was greater than 20 µM. Further, at μ-opioid receptor [1] (HEK-293 or CHO cells), the Emax was -0.33 ± 0.67%.
As for `CN1CC[C@@]2(C)c3cc(O)ccc3C[C@@H]1[C@@H]2N(C)C(=O)Nc1nc2ccccc2o1` [Compound 121, 3-(Benzo[d]oxazol-2-yl)-1-((2R,6S,11R)-8-hydroxy-3,6-dimethyl-1,2,3,4,5,6-hexahydro-2,6-methanobenzo[d]azocin-11-yl)-1-methylurea], at μ-opioid receptor [1] (setting [3]), the EC50 turned out to be 0.0824 ± 0.0104 µM. Further, on μ-opioid receptor [1] (HEK-293 or CHO cells), the Emax is 60.1 ± 4.74%.
For `CN1CC[C@@]2(C)c3cc(O)ccc3C[C@@H]1[C@H]2NC(=O)Nc1nc2cc(F)ccc2s1` [Compound 122, 1-(5-Fluorobenzo[d]thiazol-2-yl)-3-((2R,6S,11S)-8-hydroxy-3,6-dimethyl-1,2,3,4,5,6-hexahydro-2,6-methanobenzo[d]azocin-11-yl)urea], the EC50 on μ-opioid receptor [1] (setting [3]) is 0.375 ± 0.106 µM. Besides, the Emax on μ-opioid receptor [1] (HEK-293 or CHO cells) was 13.6 ± 1.14%.
With `CN1CC[C@@]2(C)c3cc(C(N)=O)ccc3C[C@@H]1[C@@H]2N(C)CCc1ccccc1` [Compound 123, (2R,6S,11R)-3,6-dimethyl-11-(methyl(phenethyl)amino)-1,2,3,4,5,6-hexahydro-2,6-methanobenzo[d]azocine-8-carboxamide], at μ-opioid receptor [1] (setting [3]), the EC50 worked out at 0.0233 ± 0.00447 µM. In addition, the Emax at μ-opioid receptor [1] (HEK-293 or CHO cells) amounted to 97.4 ± 0.2%.
On to `CN1CC[C@@]2(C)c3cc(C(N)=O)ccc3C[C@@H]1[C@@H]2N(C)C(=O)Cc1ccccc1` [Compound 124, (2R,6S,11R)-3,6-dimethyl-11-(N-methyl-2-phenylacetamido)-1,2,3,4,5,6-hexahydro-2,6-methanobenzo[d]azocine-8-carboxamide], for which, on μ-opioid receptor [1] (setting [3]), the concentration giving a half-maximal response (EC50) was determined as 3.54 ± 0.48 µM. Further, the Emax on μ-opioid receptor [1] (HEK-293 or CHO cells) was found to be 81.6 ± 3.37%.
As for `CN1CC[C@@]2(C)c3cc(C(=O)O)ccc3C[C@@H]1[C@H]2NCCc1ccc(S(C)(=O)=O)cc1` [Compound 125, (2R,6S,11S)-3,6-dimethyl-11-((4-(methylsulfonyl)phenethyl)amino)-1,2,3,4,5,6-hexahydro-2,6-methanobenzo[d]azocine-8-carboxylic acid], on μ-opioid receptor [1] (setting [4]), the concentration for a half-maximal effect (EC50) was greater than 20 µM. For the same compound, at μ-opioid receptor [1] (HEK-293 or CHO cells), the Emax is 0%.
In the case of `CN1CC[C@@]2(C)c3cc(C(=O)O)ccc3C[C@@H]1[C@@H]2NCCc1ccc(S(C)(=O)=O)cc1` [Compound 126, (2R,6S,11R)-3,6-dimethyl-11-((4-(methylsulfonyl)phenethyl)amino)-1,2,3,4,5,6-hexahydro-2,6-methanobenzo[d]azocine-8-carboxylic acid], the EC50 at μ-opioid receptor [1] (setting [4]) was greater than 20 µM. On μ-opioid receptor [1] (HEK-293 or CHO cells), the Emax was 18.4 ± 0.3%.
